The subject of series [1] is HeLa. As to the kind of experiment: Antiproliferative activity against human HeLa cells by MTT assay. Format: functional, cell-based.
The subject of the next series is MDA-MB-231. The series is described as follows: Antiproliferative activity against human MDA-MB-231 cells by MTT assay. Format: functional, cell-based. (In general: Tetrazolium assays rely on reduction of a dye to a coloured formazan, in cell work by metabolically active cells.)
The next series concerns HEK-293T. The series is described as follows: (§1) Cytotoxicity against human HEK293T cells by MTT assay. Format: toxicity, cell-based. The following applies: hek-293t; for Activity: human.
Series [2] can be described thus: as §1. Format: toxicity, cell-based, HEK-293T. The following applies: human, HEK293T cells.
A short description of series [3]: Inhibition of tumor angiogenesis in human HeLa cells xenografted in chick embryo chorioallantoic membrane at 10 uM incubated for 24 hrs; values are per cent of control.
Series [4] concerns HeLa. As to the kind of experiment: Inhibition of colony formation in human HeLa cells at 10 uM incubated for 24 hrs. Format: functional.
The test system of series [5] is HeLa. As to the kind of experiment: Inhibition of cell migration in human HeLa cells assessed as migration rate at 10 uM incubated for 24 hrs by transwell assay; values are per cent of control.
Series [6] deals with HeLa. The series is described as follows: Inhibition of cell adhesion in human HeLa cells at 10 uM. Format: functional.
Series [7] deals with HeLa. The series is described as follows: Antitumor activity against human HeLa cells xenografted in chicken embryo chorioallantoic membrane assessed as reduction in tumor weight at 10 uM (reference value: 39 +/- 1.41 mg). Format: functional.
Series [8] concerns HeLa. As to the kind of experiment: Inhibition of cell migration in human HeLa cells assessed as migration rate at 5 uM incubated for 24 hrs by transwell assay; values are per cent of control.
Series [9] can be described thus: Inhibition of tumor angiogenesis in human HeLa cells xenografted in chick embryo chorioallantoic membrane at 2.5 uM incubated for 24 hrs; values are per cent of control. On the technique in general: In xenograft studies the graft and the host belong to different species.
Series [10] in a line: Inhibition of tumor angiogenesis in human HeLa cells xenografted in chick embryo chorioallantoic membrane at 5 uM incubated for 24 hrs; values are per cent of control.
In series [11] the test system is HeLa. The series is described as follows: Antitumor activity against human HeLa cells xenografted in chicken embryo chorioallantoic membrane assessed as reduction in tumor weight at 2.5 uM (reference value: 39 +/- 1.41 mg). Format: functional.
Series [12] deals with HeLa. As to the kind of experiment: Antitumor activity against human HeLa cells xenografted in chicken embryo chorioallantoic membrane assessed as reduction in tumor weight at 5 uM (reference value: 39 +/- 1.41 mg). Format: functional.
The subject of series [13] is HeLa. As to the kind of experiment: Inhibition of colony formation in human HeLa cells incubated for 24 hrs. The following applies: dose 2.5-10 µM. Format: functional, cell-based.
In series [14] the test system is HeLa. As to the kind of experiment: Inhibition of cell adhesion in human HeLa cells. Format: functional, cell-based.
Series [15] deals with HeLa. The series is described as follows: Inhibition of cell migration in human HeLa cells assessed as migration rate at 2.5 uM incubated for 24 hrs by transwell assay; values are per cent of control.

The structures appear in SMILES notation. Calls of active or inactive are those of the source. The calls are words filed in the database; no cut-off is given here.

Turning to `O=C(/C=C/c1ccc2c(c1)OCO2)Nc1cccc2c1CN(C1CCC(=O)NC1=O)C2=O` (configuration not stated), the IC50 (usually the midpoint of a concentration-inhibition curve) in the series on HeLa [1] worked out at 37.3 µM; in the series on HEK-293T, 1440 µM. In addition, the result with MDA-MB-231 was inactive.

Consider `O=C(/C=C/C=C/c1ccc2c(c1)OCO2)Nc1cccc2c1CN(C1CCC(=O)NC1=O)C2=O` (configuration not stated), for which the half-inhibitory concentration (IC50) in the series with HeLa [1] came to 50.4 µM; with MDA-MB-231 it was 80.7 µM; in series [2], 81.5 µM.

As for `COc1cc2c(cc1OC)C(=O)C(CC1CCN(C(=O)c3ccc4c(c3)OC(F)(F)O4)CC1)C2` (configuration not stated), the values for the IC50 with HeLa [1] and in the series on MDA-MB-231 were 38 µM and 81.3 µM, respectively. The Activity entry with HEK-293T is on record as “Non-Toxic”.

`COc1cc2c(cc1OC)C(=O)C(CC1CCN(C(=O)c3ccc4c(c3)OCO4)CC1)C2` (configuration not stated): the IC50 was 25 µM in the series with HeLa [1], 80.6 µM in the series with MDA-MB-231 and 405 µM in series [2].

As for `Cc1cn(-c2cc(NC(=O)c3ccc4c(c3)OCO4)cc(C(F)(F)F)c2)cn1`, the IC50 in the series with HeLa [1] was 50.6 µM; with MDA-MB-231 it was 254 µM; in [2] it was 479 µM.

For `O=c1[nH]cc(F)c(=O)[nH]1` [FLUOROURACIL], the IC50 with HeLa [1] was found to be 44.6 µM; in the series with MDA-MB-231, 18.1 µM; in [2], 3.21 µM. Moreover, the angiogenesis (% of control) at 10 µM in [3] came out at 78.8%. The inhibition (in general, how much of the control response was suppressed) at 10 µM stood at 52.1% in the series on HeLa [4] and 55.8% in the series with HeLa [6]. In addition, in the series on HeLa [5], the migration rate (% of control) at 10 µM worked out at 47.3%.

For `COc1cc2c(cc1OC)C(=O)C(CC1CCN(C(=O)/C=C/c3cc4c(cc3Br)OCO4)CC1)C2` (configuration not stated), the values for the IC50 with HeLa [1] and with MDA-MB-231 were 29.5 µM and 15.2 µM, respectively. Moreover, the Activity entry in the series on HEK-293T was “Non-Toxic”.

Turning to `O=C(/C=C/C=C/c1ccc2c(c1)OCO2)N1CCCCC1` [PIPERINE], the IC50 in the series on HeLa [1] stood at 44.4 µM; in the series with MDA-MB-231 it was 239 µM; in series [2], 42.8 µM.

As to `O=C1CCC(N2Cc3c(NC(=O)Cc4ccc5c(c4)OCO5)cccc3C2=O)C(=O)N1` (configuration not stated), the IC50 is 63.2 µM in the series on HeLa [1] and 1430 µM with HEK-293T. In the series with MDA-MB-231, the result was inactive.

Regarding `COc1cc2c(cc1OC)C(=O)C(CC1CCN(C(=O)/C=C/C=C/c3ccc4c(c3)OCO4)CC1)C2` (configuration not stated), the IC50 with HeLa [1] was determined as 32.1 µM; with MDA-MB-231 it was 123 µM; in series [2], 61.9 µM.

With `Cc1cn(-c2cc(NC(=O)/C=C/c3ccc4c(c3)OCO4)cc(C(F)(F)F)c2)cn1`, the figures for the IC50 (in the series on HeLa [1]; with MDA-MB-231; in [2]) were 8.61 µM, 28.8 µM and 18.7 µM, respectively.

Regarding `Cc1cn(-c2cc(NC(=O)Cc3ccc4c(c3)OCO4)cc(C(F)(F)F)c2)cn1`, the IC50 turned out to be 7.81 µM in the series with HeLa [1], 46.9 µM in the series with MDA-MB-231 and 18.9 µM in series [2].

As for `Cc1cn(-c2cc(NC(=O)/C=C/C=C/c3ccc4c(c3)OCO4)cc(C(F)(F)F)c2)cn1`, the IC50 amounted to 10.2 µM in the series on HeLa [1], 22.8 µM in the series with MDA-MB-231 and 104 µM in [2]. In addition, the values for the Activity in the series with HeLa [7], in the series with HeLa [11] and with HeLa [12] were 7.5 mg, 28.5 mg and 13.5 mg, respectively. The compound also gave an angiogenesis (% of control) at 10 µM in series [3] of 61.9%. Besides, in the series with HeLa [8], the migration rate (% of control) at 5 µM amounted to 50.4%. For the same compound, the inhibition at 10 µM in the series with HeLa [4] was determined as 25.1%; with HeLa [6] it was 16.7%. The compound further registered an angiogenesis (% of control) at 2.5 µM in [9] of 93.2%. The migration rate (% of control) at 10 µM with HeLa [5] was determined as 27.6%. This compound also registered an angiogenesis (% of control) at 5 µM in series [10] of 78.4%. Moreover, the inhibition entry with HeLa [13] and in the series on HeLa [14] was “Dose-Dependent Effect” in each case. Also, in the series on HeLa [15], the migration rate (% of control) at 2.5 µM is 80.3%.

In the case of `COc1cc2c(cc1OC)C(=O)C(CC1CCN(C(=O)/C=C/c3ccc4c(c3)OCO4)CC1)C2` (configuration not stated), the IC50 in the series on HeLa [1] amounted to 18.5 µM; in the series on MDA-MB-231, 105 µM; in [2], 8.03 µM.

In the case of `O=C1CCC(N2Cc3c(NC(=O)c4ccc5c(c4)OCO5)cccc3C2=O)C(=O)N1` (configuration not stated), the IC50 with HeLa [1] was determined as 11.5 µM; in the series on MDA-MB-231, 284 µM; in series [2] it was 625 µM.
